Laboratory results as given in patent US5324502A, “Radiopharmaceuticals for imaging the heart” (priority 1992, dated 1994).
Read-outs that look alike come from different tables or passages of the source.

Experiments:
[1] = Octanol/water partition coefficient of radiolabeled gallium complexes; assay type: physicochemical; conditions: octanol/tris buffer, pH 7
Procedure: Octanol/water partition coefficients were measured by vortex mixing 1 mL of 1-octanol and 1 mL of isotonic Tris buffer (pH 7.0) with a 1-5 μL sample of the radiolabeled gallium complex. Following centrifugation at >1200 g for 5 minutes, the octanol and aqueous phases were sampled and counted in an automatic well counter.

[2] = rat
Procedure: The gallium-67 complexes are prepared by ligand exchange from gallium-67 chloride, employing the tris(acetylacetonato)gallium(III) complex as an intermediate. The Ga-67 acetylacetonate in ethanol is reacted with the chelating ligand or ligand precursor at elevated temperature to form rapidly the desired gallium radiopharmaceutical. […] The biodistribution of several radiopharmaceuticals was determined in rats following intravenous injection using techniques previously described (M. A. Green, Nuclear Medicine and Biology 14:59-61, 1987; E. John and M. A. Green, J. Medicinal Chemistry, 33:1764-1770, 1990).
Under ether anesthesia, 1 to 3 μCi (0.1-0.2 mL) of no-carrier-added Ga-67 compound was administered by bolus injection into the femoral vein of male Sprague-Dawley rats. The ether anesthetized rats were sacrificed by decapitation at given time intervals post-injection, organs of interest were removed, weighed, and the gallium-67 activity counted. The biodistribution was calculated as a percentage of the injected dose per gram of tissue and percentage of injected dose per organ for each sample.

CCN(CC)c1ccc(C=NCCCNCCNCCCN=Cc2ccc(N(CC)CC)cc2[O-])c([O-])c1.[67Ga+3] [(4-deaSal)2 BAPEN]
log P [1]: 2.44
% Injected Dose per Gram Tissue, Blood ([2]; i.v., 1 min): 0.80 ± 0.01 % Injected Dose per Gram Tissu
% Injected Dose per Gram Tissue, Brain ([2]; i.v., 1 min): 0.04 ± 0.01 % Injected Dose per Gram Tissu
% Injected Dose per Gram Tissue, Heart ([2]; i.v., 1 min): 0.98 ± 0.07 % Injected Dose per Gram Tissu
% Injected Dose per Gram Tissue, Kidney (one) ([2]; i.v., 1 min): 7.22 ± 0.48 % Injected Dose per Gram Tissu
% Injected Dose per Gram Tissue, Liver ([2]; i.v., 1 min): 4.15 ± 0.25 % Injected Dose per Gram Tissu
% Injected Dose per Gram Tissue, Lungs ([2]; i.v., 1 min): 1.16 ± 0.06 % Injected Dose per Gram Tissu
% Injected Dose per Gram Tissue, Spleen ([2]; i.v., 1 min): 1.22 ± 0.47 % Injected Dose per Gram Tissu
% injected dose in heart, 1 min ([2]; i.v., 1 min, preliminary studies): 0.69 ± 0.05 % injected dose
% Injected Dose Per Gram of Tissue, Blood ([2]; i.v., 5 min): 0.39 ± 0.05 % Injected Dose Per Gram of Tissue
% Injected Dose Per Gram of Tissue, Brain ([2]; i.v., 5 min): 0.02 ± 0.01 % Injected Dose Per Gram of Tissue
% Injected Dose Per Gram of Tissue, Heart ([2]; i.v., 5 min): 0.91 ± 0.06 % Injected Dose Per Gram of Tissue
% Injected Dose Per Gram of Tissue, Kidney (1) ([2]; i.v., 5 min): 7.11 ± 0.89 % Injected Dose Per Gram of Tissue
% Injected Dose Per Gram of Tissue, Liver ([2]; i.v., 5 min): 3.96 ± 0.28 % Injected Dose Per Gram of Tissue
% Injected Dose Per Gram of Tissue, Lungs ([2]; i.v., 5 min): 0.89 ± 0.19 % Injected Dose Per Gram of Tissue
% Injected Dose Per Gram of Tissue, Spleen ([2]; i.v., 5 min): 1.19 % Injected Dose Per Gram of Tissue
% Injected Dose per Gram Tissue, Blood ([2]; i.v., 15 min): 0.20 ± 0.03 % Injected Dose per Gram Tissu
% Injected Dose per Gram Tissue, Brain ([2]; i.v., 15 min): 0.02 ± 0.00 % Injected Dose per Gram Tissu
% Injected Dose per Gram Tissue, Heart ([2]; i.v., 15 min): 0.90 ± 0.06 % Injected Dose per Gram Tissu
% Injected Dose per Gram Tissue, Kidney (one) ([2]; i.v., 15 min): 6.82 ± 0.53 % Injected Dose per Gram Tissu
% Injected Dose per Gram Tissue, Liver ([2]; i.v., 15 min): 3.21 ± 0.25 % Injected Dose per Gram Tissu
% Injected Dose per Gram Tissue, Lungs ([2]; i.v., 15 min): 0.70 ± 0.07 % Injected Dose per Gram Tissu
% Injected Dose per Gram Tissue, Spleen ([2]; i.v., 15 min): 1.27 ± 0.17 % Injected Dose per Gram Tissu
% Injected Dose per Gram Tissue, Blood ([2]; i.v., 120 min): 0.10 ± 0.01 % Injected Dose per Gram Tissu
% Injected Dose per Gram Tissue, Brain ([2]; i.v., 120 min): 0.02 ± 0.01 % Injected Dose per Gram Tissu
% Injected Dose per Gram Tissue, Heart ([2]; i.v., 120 min): 0.92 ± 0.10 % Injected Dose per Gram Tissu
% Injected Dose per Gram Tissue, Kidney (one) ([2]; i.v., 120 min): 5.69 ± 0.75 % Injected Dose per Gram Tissu
% Injected Dose per Gram Tissue, Liver ([2]; i.v., 120 min): 1.07 ± 0.10 % Injected Dose per Gram Tissu
% Injected Dose per Gram Tissue, Lungs ([2]; i.v., 120 min): 0.53 ± 0.06 % Injected Dose per Gram Tissu
% Injected Dose per Gram Tissue, Spleen ([2]; i.v., 120 min): 0.99 ± 0.18 % Injected Dose per Gram Tissu
% injected dose in heart, 2 h ([2]; i.v., 2 h, preliminary studies): 0.65 ± 0.05 % injected dose
Heart/Blood ([2]; ratio, i.v., 1 min): 1.22 ± 0.08
Heart/Liver ([2]; ratio, i.v., 1 min): 0.24 ± 0.03
Heart/Lungs ([2]; ratio, i.v., 1 min): 0.85 ± 0.10
Heart/Blood ([2]; ratio, i.v., 5 min): 2.36 ± 0.25
Heart/Liver ([2]; ratio, i.v., 5 min): 0.23 ± 0.02
Heart/Lung ([2]; ratio, i.v., 5 min): 1.05 ± 0.19
Heart/Blood ([2]; ratio, i.v., 15 min): 4.54 ± 0.31
Heart/Liver ([2]; ratio, i.v., 15 min): 0.28 ± 0.04
Heart/Lungs ([2]; ratio, i.v., 15 min): 1.29 ± 0.05
Heart/Blood ([2]; ratio, i.v., 120 min): 9.21 ± 1.12
Heart/Liver ([2]; ratio, i.v., 120 min): 0.86 ± 0.18
Heart/Lungs ([2]; ratio, i.v., 120 min): 1.74 ± 0.35

COc1ccc([O-])c(C=NCCCNCCNCCCN=Cc2cc(OC)ccc2[O-])c1.[67Ga+3] [(5-MeOSal)2 BAPEN, ^67 GaL^+ L = [bis(5-methoxysalicylaldimino)-N,N'-bis(3-aminopropyl)ethylenediamine]]
log P [1]: 0.53
% Injected Dose per Gram Tissue, Brain ([2]; in vivo, iv): 0.00 ± 0.00
% injected dose in heart, 1 min ([2]; in vivo, iv): 0.34 ± 0.03 % injected dose
% injected dose in heart, 2 h ([2]; in vivo, iv): 0.23 ± 0.03 % injected dose
% Injected Dose per Gram Tissue, Blood ([2]; in vivo, iv, 1 min): 0.52 ± 0.08
% Injected Dose per Gram Tissue, Brain ([2]; in vivo, iv, 1 min): 0.02 ± 0.01
% Injected Dose per Gram Tissue, Heart ([2]; in vivo, iv, 1 min): 0.46 ± 0.03
% Injected Dose per Gram Tissue, Kidney (one) ([2]; in vivo, iv, 1 min): 9.31 ± 0.32
% Injected Dose per Gram Tissue, Liver ([2]; in vivo, iv, 1 min): 3.01 ± 0.51
% Injected Dose per Gram Tissue, Lungs ([2]; in vivo, iv, 1 min): 0.55 ± 0.14
% Injected Dose per Gram Tissue, Spleen ([2]; in vivo, iv, 1 min): 0.25 ± 0.02
Heart/Blood ([2]; in vivo, iv, 1 min): 0.89 ± 0.12
% Injected Dose per Gram Tissue, Blood ([2]; in vivo, iv, 2 h): 0.08 ± 0.01
% Injected Dose per Gram Tissue, Heart ([2]; in vivo, iv, 2 h): 0.33 ± 0.03
% Injected Dose per Gram Tissue, Kidney (one) ([2]; in vivo, iv, 2 h): 1.57 ± 0.13
% Injected Dose per Gram Tissue, Liver ([2]; in vivo, iv, 2 h): 0.78 ± 0.01
% Injected Dose per Gram Tissue, Lungs ([2]; in vivo, iv, 2 h): 0.16 ± 0.02
% Injected Dose per Gram Tissue, Spleen ([2]; in vivo, iv, 2 h): 0.07 ± 0.01
Heart/Blood ([2]; in vivo, iv, 2 h): 4.33 ± 0.28
% Injected Dose per Gram Tissue, Blood ([2]; in vivo, iv, […]): 0.15 ± 0.04
% Injected Dose per Gram Tissue, Heart ([2]; in vivo, iv, […]): 0.36 ± 0.01
% Injected Dose per Gram Tissue, Kidney (one) ([2]; in vivo, iv, […]): 4.65 ± 1.29
% Injected Dose per Gram Tissue, Liver ([2]; in vivo, iv, […]): 2.09 ± 0.78
% Injected Dose per Gram Tissue, Lungs ([2]; in vivo, iv, […]): 0.22 ± 0.22
% Injected Dose per Gram Tissue, Spleen ([2]; in vivo, iv, […]): 0.09 ± 0.01
Heart/Blood ([2]; in vivo, iv, […]): 2.61 ± 0.55
